Results taken from patent EP4467141A1, “PYRAZOLO-QUINOLINES AS SELECTIVE INHIBITORS OF GENOTOXIC STRESS-INDUCED IKK/NF- KB PATHWAYS FOR CANCER THERAPY” (Max-Delbrück-Centrum für Molekulare Medizin in der …, priority 2023, dated 2024).
Where two headings read alike, the source gives them in different places.

How the values were obtained:
Assay in all cases: Kinase panel study
Type in all cases: biochemical
Settings in all cases: for inhibition at 1 µM: 1000nM
[1] = target: T1, PIK3CB/PIK3R1 (p110 beta/p85 alpha) (Homo sapiens, UniProt P42338)
T1 construct: purchased Thermo Fisher Scientific
Procedure: (§1) The Kinase panel study was entirely provided by Thermo Fisher Scientific using the two lead compounds MW01 and MW05 as well as their derivatives (MW01-E06, MW01-E10, MW01-E14, MW01-E18, MW05-E2, MW05-E3, MW05-E9 and MW05-E10. The experiment was performed using the ZLyte or Adapta protocol according to manufacturer standard operating procedures.
(§2) Based on their similar effects in our screen and molecular analysis, MW01 and MW05 were used in comparative target deconvolution studies seeking common targets despite their distinct structures. To eliminate previously identified kinases regulating NF-κB activity, such as IKK, as possible targets of MW01 and MW05, an in vitro kinase inhibition assay was performed. […] We next investigated if any of the shared kinase targets of MW01 and MW05 play a role in genotoxic stress-induced NF-κB activity and established several criteria to narrow down pathway-relevant targets. Considering the similar NF-κB inhibition phenotypes of both compounds, we hypothesized first that the target should be shared by both lead compounds. Second, based on the CaCo2 recovery values and experimental treatment concentration of 10 µM), the putative target kinase should have a low IC50 of, at most, 2000 nM for both lead compounds in the in vitro kinase panel (Fig. 2A). Based on these criteria alone, we arrived at a relatively short list of potential targets for further analysis, leaving only PIK3CG, PIK3C2G, and CLK2 (Fig. 2B). IC50 values for PIK3C2G by both lead compounds agreed best with these criteria, but RNA expression analysis indicates high tissue specificity as well as lack of expression of this kinase in our U2-OS model cell line, which we then eliminated from further analysis (Uhlén et al., 2015). […] Table 6: Percentage of inhibition of the indicated kinases by MW01 or MW05 at either 10 µM or 1 µM. n.d. = not determined.

ALK = target: T2, ALK (Homo sapiens, UniProt Q9UM73)
T2 construct: purchased Thermo Fisher Scientific
Procedure: as §1, §2

PI4K2A (PI4K2 alpha) = target: T3, PI4K2A (PI4K2 alpha) (Homo sapiens, UniProt Q9BTU6)
T3 construct: purchased Thermo Fisher Scientific
Procedure: as §1, §2

PI4K2B (PI4K2 beta) = target: T4, PI4K2B (PI4K2 beta) (Homo sapiens, UniProt Q8TCG2)
T4 construct: purchased Thermo Fisher Scientific
Procedure: as §1, §2

IRAK4 = target: T5, IRAK4 (Homo sapiens, UniProt Q9NWZ3)
T5 construct: purchased Thermo Fisher Scientific
T5 sequence (Q9NWZ3 1-460): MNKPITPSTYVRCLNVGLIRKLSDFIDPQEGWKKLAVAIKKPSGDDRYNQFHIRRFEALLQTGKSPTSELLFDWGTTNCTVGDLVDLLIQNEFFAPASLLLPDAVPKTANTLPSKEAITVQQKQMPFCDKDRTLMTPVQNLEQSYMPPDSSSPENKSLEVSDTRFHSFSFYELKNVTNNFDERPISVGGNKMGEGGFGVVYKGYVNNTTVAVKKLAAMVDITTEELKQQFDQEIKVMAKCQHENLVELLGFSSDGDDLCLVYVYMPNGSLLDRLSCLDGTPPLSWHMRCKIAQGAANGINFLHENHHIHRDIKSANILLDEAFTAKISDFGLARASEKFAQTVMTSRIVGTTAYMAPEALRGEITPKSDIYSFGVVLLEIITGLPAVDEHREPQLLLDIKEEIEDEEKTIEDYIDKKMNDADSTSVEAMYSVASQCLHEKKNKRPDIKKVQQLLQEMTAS
Procedure: as §1, §2

PIK3C2A (PI3K-C2 alpha) = target: T6, PIK3C2A (PI3K-C2 alpha) (Homo sapiens, UniProt O00443)
T6 construct: purchased Thermo Fisher Scientific
Procedure: as §1, §2

DYRK1B = target: T7, DYRK1B (Homo sapiens, UniProt Q9Y463)
T7 construct: purchased Thermo Fisher Scientific
Procedure: as §1, §2

LRRK2 = target: T8, LRRK2 (Homo sapiens, UniProt Q5S007)
T8 construct: purchased Thermo Fisher Scientific
Procedure: as §1, §2

MAP4K2 (GCK) = target: T9, MAP4K2 (GCK) (Homo sapiens, UniProt Q12851)
T9 construct: purchased Thermo Fisher Scientific
T9 sequence (Q12851 1-820): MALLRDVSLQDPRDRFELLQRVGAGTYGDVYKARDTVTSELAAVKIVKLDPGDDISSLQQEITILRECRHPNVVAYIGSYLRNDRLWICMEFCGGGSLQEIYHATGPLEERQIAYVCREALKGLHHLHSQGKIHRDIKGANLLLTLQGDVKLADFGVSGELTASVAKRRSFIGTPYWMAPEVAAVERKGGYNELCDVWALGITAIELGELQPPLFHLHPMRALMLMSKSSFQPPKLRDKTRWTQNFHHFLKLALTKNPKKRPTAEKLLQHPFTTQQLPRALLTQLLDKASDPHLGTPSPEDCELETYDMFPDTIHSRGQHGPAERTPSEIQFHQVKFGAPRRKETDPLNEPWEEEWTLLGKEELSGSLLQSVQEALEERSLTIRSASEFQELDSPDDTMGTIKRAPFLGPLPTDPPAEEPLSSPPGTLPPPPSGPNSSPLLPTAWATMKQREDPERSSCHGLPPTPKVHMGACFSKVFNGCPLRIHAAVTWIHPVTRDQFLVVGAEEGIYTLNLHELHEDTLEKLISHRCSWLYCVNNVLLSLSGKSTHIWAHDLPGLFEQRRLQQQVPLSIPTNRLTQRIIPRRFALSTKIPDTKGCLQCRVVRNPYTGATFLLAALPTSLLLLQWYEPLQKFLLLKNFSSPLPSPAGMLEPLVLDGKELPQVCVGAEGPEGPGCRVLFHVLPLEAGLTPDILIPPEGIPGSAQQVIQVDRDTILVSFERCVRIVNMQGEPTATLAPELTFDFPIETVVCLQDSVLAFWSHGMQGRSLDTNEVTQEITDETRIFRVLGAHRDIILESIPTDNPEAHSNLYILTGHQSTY
Procedure: as §1, §2

PIP5K1A = target: T10, PIP5K1A (Homo sapiens, UniProt Q99755)
T10 construct: purchased Thermo Fisher Scientific
Procedure: as §1, §2

[2] = read-out: Percentage of inhibition
[3] = 10000nM, read-out: Percentage of inhibition
[4] = PIK3CB/PIK3R1, compound at 10µM, read-out: % of Inhibition
[5] = ALK, compound at 10µM, read-out: % of Inhibition
[6] = PI4K2A (PI4K2 alpha), compound at 10µM, read-out: % of Inhibition
[7] = PI4K2B (PI4K2 beta), compound at 10µM, read-out: % of Inhibition
[8] = IRAK4, compound at 10µM, read-out: % of Inhibition
[9] = PIK3C2A (PI3K-C2 alpha), compound at 10µM, read-out: % of Inhibition
[10] = DYRK1B, compound at 10µM, read-out: % of Inhibition
[11] = LRRK2, compound at 10µM, read-out: % of Inhibition
[12] = MAP4K2 (GCK), compound at 10µM, read-out: % of Inhibition
[13] = PIP5K1A, compound at 10µM, read-out: % of Inhibition

T1 sequence (P42338 whole entry): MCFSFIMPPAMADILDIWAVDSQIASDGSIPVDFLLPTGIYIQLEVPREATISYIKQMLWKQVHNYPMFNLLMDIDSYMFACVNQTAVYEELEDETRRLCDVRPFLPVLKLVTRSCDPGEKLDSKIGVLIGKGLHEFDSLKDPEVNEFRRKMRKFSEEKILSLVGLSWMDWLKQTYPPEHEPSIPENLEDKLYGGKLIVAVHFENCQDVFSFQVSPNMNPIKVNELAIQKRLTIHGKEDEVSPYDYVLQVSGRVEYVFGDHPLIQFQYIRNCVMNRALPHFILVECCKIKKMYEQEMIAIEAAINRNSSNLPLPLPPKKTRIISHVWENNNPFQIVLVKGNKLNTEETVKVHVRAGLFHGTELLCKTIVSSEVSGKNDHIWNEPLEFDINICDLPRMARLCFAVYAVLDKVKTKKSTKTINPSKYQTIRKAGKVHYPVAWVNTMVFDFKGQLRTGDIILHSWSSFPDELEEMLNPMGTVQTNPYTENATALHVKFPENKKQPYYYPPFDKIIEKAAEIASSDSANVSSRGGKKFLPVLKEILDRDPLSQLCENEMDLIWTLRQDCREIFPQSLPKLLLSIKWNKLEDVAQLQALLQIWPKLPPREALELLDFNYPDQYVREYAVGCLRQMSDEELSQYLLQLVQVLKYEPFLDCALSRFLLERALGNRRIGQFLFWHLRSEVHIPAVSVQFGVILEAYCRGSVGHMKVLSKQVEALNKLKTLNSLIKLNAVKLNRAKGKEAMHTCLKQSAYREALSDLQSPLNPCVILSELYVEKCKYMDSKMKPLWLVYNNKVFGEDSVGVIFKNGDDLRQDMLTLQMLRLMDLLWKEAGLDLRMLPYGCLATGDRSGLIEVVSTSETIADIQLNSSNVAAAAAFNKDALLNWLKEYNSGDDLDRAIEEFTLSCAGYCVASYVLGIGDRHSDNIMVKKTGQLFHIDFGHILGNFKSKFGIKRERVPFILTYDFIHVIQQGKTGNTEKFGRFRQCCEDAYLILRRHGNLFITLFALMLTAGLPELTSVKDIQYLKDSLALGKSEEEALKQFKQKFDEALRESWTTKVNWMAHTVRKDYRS
T1 sequence (P27986 whole entry partner): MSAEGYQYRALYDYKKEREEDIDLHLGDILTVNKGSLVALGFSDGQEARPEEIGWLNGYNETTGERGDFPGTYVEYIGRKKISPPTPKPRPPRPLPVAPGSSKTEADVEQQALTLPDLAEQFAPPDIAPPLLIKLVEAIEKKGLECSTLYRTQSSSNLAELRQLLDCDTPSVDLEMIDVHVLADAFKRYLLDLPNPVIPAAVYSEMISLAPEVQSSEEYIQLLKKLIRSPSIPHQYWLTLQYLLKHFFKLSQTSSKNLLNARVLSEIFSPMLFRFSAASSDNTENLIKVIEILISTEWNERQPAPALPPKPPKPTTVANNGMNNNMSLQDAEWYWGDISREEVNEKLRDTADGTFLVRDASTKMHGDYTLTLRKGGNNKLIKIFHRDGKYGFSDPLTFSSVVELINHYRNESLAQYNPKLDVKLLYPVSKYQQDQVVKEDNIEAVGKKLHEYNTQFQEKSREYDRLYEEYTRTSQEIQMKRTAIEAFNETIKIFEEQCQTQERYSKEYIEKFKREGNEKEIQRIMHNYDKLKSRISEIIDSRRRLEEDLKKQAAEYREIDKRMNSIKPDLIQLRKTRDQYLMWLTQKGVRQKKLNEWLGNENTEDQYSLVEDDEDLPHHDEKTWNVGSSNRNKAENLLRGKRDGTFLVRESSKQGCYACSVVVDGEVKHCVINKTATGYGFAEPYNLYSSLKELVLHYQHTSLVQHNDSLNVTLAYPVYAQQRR
T6 sequence (O00443 whole entry): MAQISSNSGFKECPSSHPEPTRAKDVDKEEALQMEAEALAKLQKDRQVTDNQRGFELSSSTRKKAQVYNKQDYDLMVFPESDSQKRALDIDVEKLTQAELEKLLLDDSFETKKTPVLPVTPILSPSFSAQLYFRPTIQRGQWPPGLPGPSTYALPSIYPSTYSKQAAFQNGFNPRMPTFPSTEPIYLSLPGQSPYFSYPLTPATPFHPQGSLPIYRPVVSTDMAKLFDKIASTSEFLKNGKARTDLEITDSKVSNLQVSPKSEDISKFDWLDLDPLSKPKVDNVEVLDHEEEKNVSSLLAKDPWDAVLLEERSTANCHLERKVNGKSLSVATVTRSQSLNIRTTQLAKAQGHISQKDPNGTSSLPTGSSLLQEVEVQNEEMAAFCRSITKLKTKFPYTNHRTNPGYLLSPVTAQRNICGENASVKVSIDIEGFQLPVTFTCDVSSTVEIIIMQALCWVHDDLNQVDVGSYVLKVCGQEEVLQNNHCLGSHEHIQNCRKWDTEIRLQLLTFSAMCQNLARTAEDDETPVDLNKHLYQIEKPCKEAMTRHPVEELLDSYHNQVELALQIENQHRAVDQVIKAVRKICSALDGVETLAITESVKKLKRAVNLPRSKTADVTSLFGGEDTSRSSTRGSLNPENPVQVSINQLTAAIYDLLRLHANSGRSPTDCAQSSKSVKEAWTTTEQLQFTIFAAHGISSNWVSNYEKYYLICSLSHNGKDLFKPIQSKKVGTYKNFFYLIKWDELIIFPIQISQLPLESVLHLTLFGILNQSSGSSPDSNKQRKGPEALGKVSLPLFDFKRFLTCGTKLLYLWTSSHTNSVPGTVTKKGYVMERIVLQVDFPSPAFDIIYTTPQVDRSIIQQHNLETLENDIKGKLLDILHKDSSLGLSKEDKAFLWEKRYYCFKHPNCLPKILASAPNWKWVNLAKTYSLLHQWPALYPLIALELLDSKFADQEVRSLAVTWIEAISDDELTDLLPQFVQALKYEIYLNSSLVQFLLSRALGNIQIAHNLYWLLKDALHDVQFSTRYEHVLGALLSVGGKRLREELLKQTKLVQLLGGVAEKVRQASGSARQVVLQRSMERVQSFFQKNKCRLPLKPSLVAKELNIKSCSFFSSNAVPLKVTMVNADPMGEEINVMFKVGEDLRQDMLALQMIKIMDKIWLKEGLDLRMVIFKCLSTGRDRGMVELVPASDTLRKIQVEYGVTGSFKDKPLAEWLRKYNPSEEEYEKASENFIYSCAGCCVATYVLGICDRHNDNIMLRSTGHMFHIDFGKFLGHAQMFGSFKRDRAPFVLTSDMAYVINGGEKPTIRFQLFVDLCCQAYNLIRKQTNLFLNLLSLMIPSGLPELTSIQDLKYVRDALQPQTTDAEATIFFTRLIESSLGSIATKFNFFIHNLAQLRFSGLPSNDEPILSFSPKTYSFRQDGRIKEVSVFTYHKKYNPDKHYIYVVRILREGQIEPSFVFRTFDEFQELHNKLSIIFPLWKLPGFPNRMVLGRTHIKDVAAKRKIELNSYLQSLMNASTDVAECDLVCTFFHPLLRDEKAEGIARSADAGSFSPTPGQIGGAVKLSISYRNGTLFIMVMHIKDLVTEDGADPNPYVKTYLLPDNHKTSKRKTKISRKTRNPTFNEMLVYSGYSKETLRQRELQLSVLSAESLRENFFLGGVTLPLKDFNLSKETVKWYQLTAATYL
T10 sequence (Q99755 whole entry): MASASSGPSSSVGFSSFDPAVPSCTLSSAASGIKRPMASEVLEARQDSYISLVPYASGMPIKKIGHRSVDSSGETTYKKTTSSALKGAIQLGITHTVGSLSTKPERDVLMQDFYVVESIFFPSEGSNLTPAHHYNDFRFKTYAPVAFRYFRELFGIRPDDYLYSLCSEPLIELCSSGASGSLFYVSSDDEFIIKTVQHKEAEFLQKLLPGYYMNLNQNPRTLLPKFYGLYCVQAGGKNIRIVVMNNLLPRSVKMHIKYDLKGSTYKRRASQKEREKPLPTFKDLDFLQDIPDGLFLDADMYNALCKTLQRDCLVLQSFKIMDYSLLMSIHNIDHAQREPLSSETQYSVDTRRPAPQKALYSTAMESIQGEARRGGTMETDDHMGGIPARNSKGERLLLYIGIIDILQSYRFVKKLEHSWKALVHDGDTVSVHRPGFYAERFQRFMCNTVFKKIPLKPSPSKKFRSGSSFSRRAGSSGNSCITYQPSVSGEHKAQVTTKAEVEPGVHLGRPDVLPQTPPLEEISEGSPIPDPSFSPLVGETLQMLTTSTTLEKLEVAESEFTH
T3 sequence (Q9BTU6 whole entry): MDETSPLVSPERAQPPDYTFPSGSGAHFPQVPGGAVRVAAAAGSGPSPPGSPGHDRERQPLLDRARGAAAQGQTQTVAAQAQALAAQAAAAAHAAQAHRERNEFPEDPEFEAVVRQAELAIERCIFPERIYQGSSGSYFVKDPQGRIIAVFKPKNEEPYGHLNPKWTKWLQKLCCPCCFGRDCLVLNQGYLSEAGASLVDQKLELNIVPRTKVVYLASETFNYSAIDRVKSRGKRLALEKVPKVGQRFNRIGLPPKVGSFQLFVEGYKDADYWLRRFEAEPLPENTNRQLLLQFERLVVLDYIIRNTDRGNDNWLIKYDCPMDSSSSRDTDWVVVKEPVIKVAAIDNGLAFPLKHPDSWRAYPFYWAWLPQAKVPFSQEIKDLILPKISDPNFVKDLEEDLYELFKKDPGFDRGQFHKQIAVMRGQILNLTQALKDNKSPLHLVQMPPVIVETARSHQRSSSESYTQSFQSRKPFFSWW
T4 sequence (Q8TCG2 whole entry): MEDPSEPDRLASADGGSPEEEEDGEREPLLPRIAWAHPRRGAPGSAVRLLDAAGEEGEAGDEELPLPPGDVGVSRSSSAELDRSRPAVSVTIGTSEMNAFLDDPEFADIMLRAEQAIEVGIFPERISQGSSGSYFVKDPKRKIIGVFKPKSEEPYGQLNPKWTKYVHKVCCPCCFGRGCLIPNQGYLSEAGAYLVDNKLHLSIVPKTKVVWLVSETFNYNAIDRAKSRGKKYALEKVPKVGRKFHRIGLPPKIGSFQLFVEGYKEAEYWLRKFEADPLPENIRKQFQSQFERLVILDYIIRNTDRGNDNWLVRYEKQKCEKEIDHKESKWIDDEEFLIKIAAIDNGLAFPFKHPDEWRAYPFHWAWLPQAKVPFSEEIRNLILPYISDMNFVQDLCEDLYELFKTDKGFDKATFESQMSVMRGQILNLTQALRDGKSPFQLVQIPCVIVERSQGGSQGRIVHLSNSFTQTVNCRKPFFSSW

inhibition at 10 µM [1, 4] | inhibition at 10 µM (ALK; [5]) | inhibition at 10 µM (PI4K2A (PI4K2 alpha); [6]) | inhibition at 10 µM (PI4K2B (PI4K2 beta); [7]) | inhibition at 10 µM (IRAK4; [8]) | inhibition at 10 µM (PIK3C2A (PI3K-C2 alpha); [9]) | inhibition at 10 µM (DYRK1B; [10]) | inhibition at 10 µM (LRRK2; [11]) | inhibition at 10 µM (MAP4K2 (GCK); [12]) | inhibition at 10 µM (PIP5K1A; [13]) | SMILES | also measured
– | – | – | – | – | – | – | – | – | – | COc1ccc2c(c1OC)c(=O)n1c3ccc(O)cc3c3ccnc2c31 [MW01, 5-Hydroxy-10,11-dimethoxy-9H-benzo[c]indolo[3,2,1-ij][1,5]naphthyridin-9-one] | inhibition at 1 µM [1, 2]: 30%; inhibition at 10 µM [1, 3]: 67%; inhibition at 1 µM (ALK; [2]): 18%; inhibition at 10 µM (ALK; [3]): 40%; inhibition at 1 µM (PI4K2A (PI4K2 alpha); [2]): 7%; inhibition at 10 µM (PI4K2A (PI4K2 alpha); [3]): 25%; inhibition at 1 µM (PI4K2B (PI4K2 beta); [2]): 3%; inhibition at 10 µM (PI4K2B (PI4K2 beta); [3]): 20%; inhibition at 1 µM (IRAK4; [2]): 19%; inhibition at 10 µM (IRAK4; [3]): 50%; inhibition at 1 µM (PIK3C2A (PI3K-C2 alpha); [2]): 26%; inhibition at 10 µM (PIK3C2A (PI3K-C2 alpha); [3]): 43%; inhibition at 1 µM (DYRK1B; [2]): 62%; inhibition at 10 µM (DYRK1B; [3]): 82%; inhibition at 1 µM (LRRK2; [2]): 83%; inhibition at 10 µM (LRRK2; [3]): 87%; inhibition at 1 µM (MAP4K2 (GCK); [2]): 50%; inhibition at 10 µM (MAP4K2 (GCK); [3]): 77%; inhibition at 1 µM (PIP5K1A; [2]): 25%; inhibition at 10 µM (PIP5K1A; [3]): 43%
– | – | – | – | – | – | – | – | – | – | COc1ccc2cc3c(N)nn(C(=O)c4cccc(N(C)C)c4)c3nc2c1 [MW05, (3-Amino-7-methoxypyrazolo[3,4-b]quinolin-1-yl)-[3-(dimethylamino)phenyl]methanone] | inhibition at 1 µM [1, 2]: 21%; inhibition at 10 µM [1, 3]: 67%; inhibition at 1 µM (ALK; [2]): 0%; inhibition at 10 µM (ALK; [3]): -2%; inhibition at 1 µM (PI4K2A (PI4K2 alpha); [2]): -7%; inhibition at 10 µM (PI4K2A (PI4K2 alpha); [3]): -1%; inhibition at 1 µM (PI4K2B (PI4K2 beta); [2]): 9%; inhibition at 10 µM (PI4K2B (PI4K2 beta); [3]): 0%; inhibition at 1 µM (IRAK4; [2]): 0%; inhibition at 10 µM (IRAK4; [3]): 2%; inhibition at 1 µM (PIK3C2A (PI3K-C2 alpha); [2]): -5%; inhibition at 10 µM (PIK3C2A (PI3K-C2 alpha); [3]): 1%; inhibition at 1 µM (DYRK1B; [2]): 28%; inhibition at 10 µM (DYRK1B; [3]): 69%; inhibition at 1 µM (LRRK2; [2]): -3%; inhibition at 10 µM (LRRK2; [3]): 5%; inhibition at 1 µM (MAP4K2 (GCK); [2]): 13%; inhibition at 10 µM (MAP4K2 (GCK); [3]): 10%; inhibition at 1 µM (PIP5K1A; [2]): -6%; inhibition at 10 µM (PIP5K1A; [3]): 5%
13% | 19% | 22% | 11% | -9% | 26% | 20% | 64% | 70% | 20% | COc1ccc2c(c1)c1ccnc3c4nc(OC)ccc4c(=O)n2c13 [MW01-E6, 5,15-dimethoxy-1,11,14-triazapentacyclo[10.7.1,0^2,7.0^8,^20.0^13,^18]icosa-2(7),3,5,8(20),9,11,13(18),14,16-nonaen-19-one] | –
62% | 35% | 30% | 24% | 2% | 44% | 68% | 75% | 93% | 28% | O=c1c2cnccc2c2nccc3c4cc(O)ccc4n1c32 [MW01-E18, 5-hydroxy-1,11,16-triazapentacyclo[10.7.1.0^2,^7.0^8,^20.0^13,^18]icosa-2(7),3,5,8(20),9,11,13(18),14,16-nonaen-19-one] | –
26% | 15% | 35% | 21% | -15% | 23% | 23% | -4% | 81% | 11% | COc1ccc2c(c1)c1ccnc3c4ccnc(OC)c4c(=O)n2c13 [MW01-E14, 5,17-dimethoxy-1,11,16-triazapentacyclo[10.7.1.0^2,^7.0^8,^20.0^13,^18]icosa-2(7),3,5,8(20),9,11,13(18),14,16-nonaen-19-one] | –
1% | 24% | -4% | 8% | -3% | 10% | 84% | 8% | 2% | -9% | COc1ccc2nc3c(cc2c1)c(N)nn3C(=O)c1cccc(N(C)C)c1 [MW05-E2, 1-[3-(dimethylamino)benzoyl]-6-methoxy-1H-pyrazolo[3,4-b]quinolin-3-amine] | –
34% | 75% | 13% | 22% | -186% | 31% | 81% | 86% | 98% | 5% | O=c1c2cc(O)ccc2c2nccc3c4cc(O)ccc4n1c32 [MW01-E10, 5,16-dihydroxy-1,11-diazapentacyclo[10.7.1.0^2,^7.0^8,^20.0^13,^18]icosa-2(7),3,5,8(20),9,11,13(18),14,16-nonaen-19-one] | –
